Test results: patent publication US12391685B2, “Inhibitors of RNA-guided nuclease target binding and uses thereof” (THE BROAD INSTITUTE, INC., priority 2018, dated 2025)

What follows are molecules tested against SpCas9 (Streptococcus pyogenes serotype M1, UniProt Q99ZW2) (assay: eGFP-disruption assay in U2OS.eGFP.PEST cells). Settings: screen of structural analogs of BRD7087; 15 μM compound, 24 h, U2OS.eGFP.PEST cells.
SpCas9, sequence (Q99ZW2 whole entry): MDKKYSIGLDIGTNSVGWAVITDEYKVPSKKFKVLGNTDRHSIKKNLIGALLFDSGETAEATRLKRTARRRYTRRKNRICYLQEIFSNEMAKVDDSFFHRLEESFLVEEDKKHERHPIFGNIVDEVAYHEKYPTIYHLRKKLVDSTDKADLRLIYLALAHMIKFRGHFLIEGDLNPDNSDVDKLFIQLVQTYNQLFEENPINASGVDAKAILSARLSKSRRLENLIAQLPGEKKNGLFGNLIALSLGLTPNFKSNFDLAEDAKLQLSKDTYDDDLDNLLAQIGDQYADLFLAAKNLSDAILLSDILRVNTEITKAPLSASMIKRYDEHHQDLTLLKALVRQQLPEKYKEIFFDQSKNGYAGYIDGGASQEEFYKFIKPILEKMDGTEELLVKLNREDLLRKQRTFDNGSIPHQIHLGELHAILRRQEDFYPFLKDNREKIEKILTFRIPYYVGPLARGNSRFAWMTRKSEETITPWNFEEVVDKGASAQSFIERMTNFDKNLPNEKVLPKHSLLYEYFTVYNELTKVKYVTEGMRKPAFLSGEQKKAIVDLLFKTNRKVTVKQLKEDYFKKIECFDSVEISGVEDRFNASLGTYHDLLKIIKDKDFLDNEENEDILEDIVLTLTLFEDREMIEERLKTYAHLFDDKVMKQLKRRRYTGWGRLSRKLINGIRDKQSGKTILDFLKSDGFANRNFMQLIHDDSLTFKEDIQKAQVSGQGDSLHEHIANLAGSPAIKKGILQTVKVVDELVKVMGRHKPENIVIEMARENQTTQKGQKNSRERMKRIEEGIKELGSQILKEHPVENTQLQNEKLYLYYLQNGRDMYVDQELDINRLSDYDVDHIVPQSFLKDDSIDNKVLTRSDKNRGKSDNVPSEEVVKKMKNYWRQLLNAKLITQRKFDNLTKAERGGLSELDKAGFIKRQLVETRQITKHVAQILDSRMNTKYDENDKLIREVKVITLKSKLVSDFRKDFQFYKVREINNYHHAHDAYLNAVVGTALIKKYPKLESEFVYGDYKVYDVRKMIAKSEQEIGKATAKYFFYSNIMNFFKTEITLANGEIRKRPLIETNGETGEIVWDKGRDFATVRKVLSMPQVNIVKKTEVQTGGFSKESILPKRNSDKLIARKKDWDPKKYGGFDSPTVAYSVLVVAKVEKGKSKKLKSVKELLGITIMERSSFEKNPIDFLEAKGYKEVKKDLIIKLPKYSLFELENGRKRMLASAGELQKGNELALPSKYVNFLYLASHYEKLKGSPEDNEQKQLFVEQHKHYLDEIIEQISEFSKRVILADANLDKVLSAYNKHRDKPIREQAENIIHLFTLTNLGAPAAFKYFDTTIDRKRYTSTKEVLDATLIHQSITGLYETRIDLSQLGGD
Assay type: cell-based, S. pyogenes
Design: host or cells: U2OS.eGFP.PEST
Protocol: SpCas9 nuclease activity in eGFP-disruption assay. Approximately 200,000 U2OS.eGFP-PEST cells were nucleofected following two different methods either by nucleofecting plasmids or RNP using the SE Cell Line 4D-Nucleofector™ X Kit (Lonza) according to the manufacturer's protocol. In the plasmid nucleofection method, cells were nucleofected either with 440 ng of SpCas9 (Addgene Plasmid #43861) or 400 ng of SpCas9 along with 40 ng of sgRNA (pFYF1320 eGFP Site #1, Addgene Plasmid #47511). Cells nucleofected only with SpCas9-expressing plasmid were used as the transfection control. In the RNP nucleofection method, either […] SpCas9 or 20 pmol preformed SpCas9:gRNA (eGFP Site #1) complex were nucleofected. Approximately 20,000 transfected cells/well were plated in 4 replicates in a 96-well plate (Corning® 3904). Cells were incubated with the indicated amount of compound or DMSO for 24 h post transfection. A DMSO solution of compound (20 mM) was resuspended in the 10% FBS containing growth media and thoroughly mixed before adding to the cells. Cells were then fixed using 4% paraformaldehyde and imaged with the HCS NuclearMask™ Blue Stain (Life Technologies) as the nuclear counter-staining agent. Imaging was performed with an ImageXpress Micro automated microscope (Molecular Devices) at 10× magnification under three excitation channels (blue, green and red) acquiring nine sites per well. Images were analyzed using MetaXpress software and data were plotted using GraphPad Prism 6.
The Z′-value was calculated using the equation (1), where σ1 and σ2 are the standard deviations of DMSO control and SpCas9:gRNA control respectively. μ1 and μ2 are the mean % GFP^− cell population for DMSO control and SpCas9:gRNA control, respectively.
For COc1cccc(S(=O)(=O)N2CC[C@H]3[C@@H](CO)N(C)c4ccc(C#Cc5cccnc5)cc4[C@H]32)c1 [BRD-K92333822], the “Average Inhibition activity” value was 55.1, the “Inhibition activity Rep 1” value was 53.1 and the “Inhibition activity Rep 2” value was 57.1.
With CN1c2ccc(C#Cc3cccnc3)cc2[C@H]2[C@H](CCN2C(=O)C2CCCCC2)[C@H]1CO [BRD-K11970601] the “Average Inhibition activity” value was 54.5, the “Inhibition activity Rep 1” value was 59.0 and the “Inhibition activity Rep 2” value was 50.0.
COc1ccc(C#Cc2ccc3c(c2)[C@@H]2[C@@H](CCN2Cc2nccs2)[C@@H](CO)N3)cc1 [BRD-K70808105] was tested, and the “Average Inhibition activity” value was 51.5, the “Inhibition activity Rep 1” value was 47.4 and the “Inhibition activity Rep 2” value was 55.6.
With CCCC#Cc1ccc2c(c1)[C@@H]1[C@@H](CCN1S(=O)(=O)c1ccccc1OC)[C@@H](CO)N2 [BRD-K43330291] the “Average Inhibition activity” value was 59.3, the “Inhibition activity Rep 1” value was 68.2 and the “Inhibition activity Rep 2” value was 50.4.
O=S(=O)(c1ccc(F)cc1)N1CC[C@@H]2[C@H](CO)Nc3ccc(C#CC4CC4)cc3[C@@H]21 [BRD-K47320872] was tested, and the “Average Inhibition activity” value was 45.1, the “Inhibition activity Rep 1” value was 44.5 and the “Inhibition activity Rep 2” value was 45.7.
In the case of CN1c2ccc(C#Cc3cccnc3)cc2[C@@H]2[C@@H](CCN2C(=O)c2cccc(F)c2)[C@@H]1CO [BRD-K18296007], the “Average Inhibition activity” value is reported as 64.7, the “Inhibition activity Rep 1” value is reported as 69.6 and the “Inhibition activity Rep 2” value is reported as 59.7.
O=C(C1CCCCC1)N1CC[C@@H]2[C@H](CO)Nc3ccc(Br)cc3[C@@H]21 [BRD-K60987574] was tested, and the “Average Inhibition activity” value was 60.9, the “Inhibition activity Rep 1” value was 59.5 and the “Inhibition activity Rep 2” value was 62.2.
COc1ccc(S(=O)(=O)N2CC[C@H]3[C@@H](CO)N(C)c4ccc(C#Cc5ccccc5OC)cc4[C@H]32)cc1 [BRD-K83448282] was tested, and the “Average Inhibition activity” value was 45.7, the “Inhibition activity Rep 1” value was 46.7 and the “Inhibition activity Rep 2” value was 44.6.
In the case of CN1c2ccc(C#Cc3cccnc3)cc2[C@@H]2[C@@H](CCN2S(=O)(=O)c2ccccc2F)[C@H]1CO [BRD-K39647256], the “Average Inhibition activity” value is reported as 54.9, the “Inhibition activity Rep 1” value is reported as 51.3 and the “Inhibition activity Rep 2” value is reported as 58.4.
CN1c2ccc(-c3ccccc3F)cc2[C@H]2[C@H](CCN2C(=O)NC2CCCCC2)[C@H]1CO [BRD-K35104316] was tested, and the “Average Inhibition activity” value was 49.1, the “Inhibition activity Rep 1” value was 54.2 and the “Inhibition activity Rep 2” value was 44.1.
With COc1ccccc1CN1CC[C@@H]2[C@H]1c1cc(C#Cc3ccccc3)ccc1N[C@@H]2CO [BRD-K18260949] the “Average Inhibition activity” value was 49.5, the “Inhibition activity Rep 1” value was 49.8 and the “Inhibition activity Rep 2” value was 49.1.
COc1ccccc1NC(=O)N1CC[C@@H]2[C@H]1c1cc(C#Cc3cccc(F)c3)ccc1N(C)[C@@H]2CO [BRD-K77165899] was tested, and the “Average Inhibition activity” value was 53.5, the “Inhibition activity Rep 1” value was 47.0 and the “Inhibition activity Rep 2” value was 59.9.
In the case of CN(C)C(=O)c1cccc(-c2ccc3c(c2)[C@@H]2[C@@H](CCN2C(=O)c2ccc4c(c2)OCO4)[C@@H](CO)N3)c1 [BRD-K83829793], the “Average Inhibition activity” value is reported as 53.1, the “Inhibition activity Rep 1” value is reported as 61.0 and the “Inhibition activity Rep 2” value is reported as 45.2.
For CN1c2ccc(-c3ccc(F)cc3)cc2[C@H]2[C@H](CCN2S(=O)(=O)c2cccc(F)c2)[C@@H]1CO [BRD-K98925777], the “Average Inhibition activity” value was 49.4, the “Inhibition activity Rep 1” value was 53.6 and the “Inhibition activity Rep 2” value was 45.2.
For C/C=C/c1ccc2c(c1)[C@H]1[C@H](CCN1C(=O)c1ccc(F)cc1)[C@H](CO)N2 [BRD-K81261525], the “Average Inhibition activity” value was 74.3, the “Inhibition activity Rep 1” value was 71.3 and the “Inhibition activity Rep 2” value was 77.4.
With COc1ccc(-c2ccc3c(c2)[C@H]2[C@H](CCN2C(=O)Cc2ccncc2)[C@H](CO)N3)cc1 [BRD-K17925790] the “Average Inhibition activity” value was 51.7, the “Inhibition activity Rep 1” value was 52.6 and the “Inhibition activity Rep 2” value was 50.8.
In the case of CN1c2ccc(-c3ccc(C#N)cc3)cc2[C@@H]2[C@@H](CCN2S(=O)(=O)c2cccc(F)c2)[C@H]1CO [BRD-K40448176], the “Average Inhibition activity” value is reported as 51.6, the “Inhibition activity Rep 1” value is reported as 52.1 and the “Inhibition activity Rep 2” value is reported as 51.2.
O=C(C1CCCCC1)N1CC[C@@H]2[C@H](CO)Nc3ccc(C#Cc4ccc(F)cc4)cc3[C@@H]21 [BRD-K72901141] was tested, and the “Average Inhibition activity” value was 49.5, the “Inhibition activity Rep 1” value was 53.2 and the “Inhibition activity Rep 2” value was 45.9.
OC[C@@H]1Nc2ccc(C#Cc3cccnc3)cc2[C@H]2NCC[C@@H]12 [BRD-K71200053] was tested, and the “Average Inhibition activity” value was 67.6, the “Inhibition activity Rep 1” value was 54.6 and the “Inhibition activity Rep 2” value was 80.6.
In the case of CN1c2ccc(C#Cc3ccccc3)cc2[C@@H]2[C@@H](CCN2S(=O)(=O)c2cn(C)cn2)[C@H]1CO [BRD-A34097118], the “Average Inhibition activity” value is reported as 60.1, the “Inhibition activity Rep 1” value is reported as 50.1 and the “Inhibition activity Rep 2” value is reported as 70.1.
In the case of O=C(Cc1ccccc1)N1CC[C@@H]2[C@H](CO)Nc3ccc(-c4ccc(F)cc4)cc3[C@@H]21 [BRD-K05104277], the “Average Inhibition activity” value is reported as 65.0, the “Inhibition activity Rep 1” value is reported as 71.6 and the “Inhibition activity Rep 2” value is reported as 58.4.
For COc1ccccc1C#Cc1ccc2c(c1)[C@H]1[C@H](CCN1C(=O)CN1CCOCC1)[C@H](CO)N2 [BRD-K26627503], the “Average Inhibition activity” value was 56.9, the “Inhibition activity Rep 1” value was 47.5 and the “Inhibition activity Rep 2” value was 66.3.
O=C(c1ccc(F)cc1)N1CC[C@@H]2[C@H]1c1cc(C#Cc3ccccc3F)ccc1N[C@@H]2CO [BRD-K79906422] was tested, and the “Average Inhibition activity” value was 51.1, the “Inhibition activity Rep 1” value was 51.3 and the “Inhibition activity Rep 2” value was 50.9.
With O=C(C1CC1)N1CC[C@@H]2[C@H](CO)Nc3ccc(Br)cc3[C@@H]21 [BRD-K31090697] the “Average Inhibition activity” value was 48.0, the “Inhibition activity Rep 1” value was 46.0 and the “Inhibition activity Rep 2” value was 49.9.
For COc1cccc(S(=O)(=O)N2CC[C@@H]3[C@H](CO)N(C)c4ccc(C#Cc5cccnc5)cc4[C@@H]32)c1 [BRD-K29966477], the “Average Inhibition activity” value was 57.5, the “Inhibition activity Rep 1” value was 50.1 and the “Inhibition activity Rep 2” value was 64.8.
For Cc1ccccc1S(=O)(=O)N1CC[C@@H]2[C@H](CO)N(C)c3ccc(C#Cc4ccc(F)cc4)cc3[C@@H]21 [BRD-K11385710], the “Average Inhibition activity” value was 51.1, the “Inhibition activity Rep 1” value was 55.7 and the “Inhibition activity Rep 2” value was 46.5.
For O=C(C1CCCCC1)N1CC[C@@H]2[C@H]1c1cc(C#Cc3ccc(F)cc3)ccc1N[C@@H]2CO [BRD-K88933335], the “Average Inhibition activity” value was 45.7, the “Inhibition activity Rep 1” value was 47.8 and the “Inhibition activity Rep 2” value was 43.7.
